Source: paper PMC9014859 (Journal of Medicinal Chemistry, 2022)
“Also recorded” adds a separate entry of the source.

Assays:
[1] = biological target: T1, Human FL NPR-C (27–541)-10His-Flag (Homo sapiens, UniProt P17342); assay: Surface plasmon resonance; details: SPR, affinity model, 1:1 binding; for Kd: KD (μM)
T1 sequence (P17342 27-541): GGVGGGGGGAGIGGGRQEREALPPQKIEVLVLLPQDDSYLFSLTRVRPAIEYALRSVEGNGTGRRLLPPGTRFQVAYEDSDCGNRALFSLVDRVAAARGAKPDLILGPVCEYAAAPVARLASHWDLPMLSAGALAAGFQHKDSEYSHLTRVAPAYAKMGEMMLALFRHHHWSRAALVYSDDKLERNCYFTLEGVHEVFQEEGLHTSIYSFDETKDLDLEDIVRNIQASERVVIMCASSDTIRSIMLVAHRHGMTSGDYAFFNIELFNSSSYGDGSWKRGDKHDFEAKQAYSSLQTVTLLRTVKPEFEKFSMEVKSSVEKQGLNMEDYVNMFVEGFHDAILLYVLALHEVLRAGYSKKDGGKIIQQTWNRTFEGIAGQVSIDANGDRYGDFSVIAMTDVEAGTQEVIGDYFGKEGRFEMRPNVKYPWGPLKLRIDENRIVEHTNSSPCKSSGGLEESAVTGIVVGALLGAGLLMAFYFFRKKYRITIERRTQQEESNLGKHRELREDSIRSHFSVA

[2] = biological target: T2, NPR-C extracellular domains (Homo sapiens, UniProt P17342); assay: Fluorescence polarization; assay type: binding; details: competition against fluorescent P19 probe
T2 sequence (P17342 27-481): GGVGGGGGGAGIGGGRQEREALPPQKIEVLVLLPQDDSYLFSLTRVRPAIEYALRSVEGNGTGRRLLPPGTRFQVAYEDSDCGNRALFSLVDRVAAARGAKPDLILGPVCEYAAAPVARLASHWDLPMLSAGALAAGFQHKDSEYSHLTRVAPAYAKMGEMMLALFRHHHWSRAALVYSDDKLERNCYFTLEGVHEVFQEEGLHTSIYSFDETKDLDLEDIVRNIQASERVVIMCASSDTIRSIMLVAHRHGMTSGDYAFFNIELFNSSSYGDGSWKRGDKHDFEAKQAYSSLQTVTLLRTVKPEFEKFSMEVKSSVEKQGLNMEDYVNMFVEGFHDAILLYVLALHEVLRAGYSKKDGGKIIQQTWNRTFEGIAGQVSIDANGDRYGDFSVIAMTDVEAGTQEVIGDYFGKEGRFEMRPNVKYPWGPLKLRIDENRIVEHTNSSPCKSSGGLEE

[3] = biological target: T3, Human NPR-C in HeLa cells (Homo sapiens, UniProt P17342); assay: Inhibition of forskolin-induced cAMP production in HeLa cells; details: 100 μM compound, forskolin 10 μM
T3 sequence (P17342 27-541): T1 sequence (P17342 27-541)

in vitro [4] = details: male, Sprague-Dawley, rat, hepatocytes
[5] = system: Mouse small mesenteric artery (NPR-C KO)
physchem = details: solubility (mg/mL), PBS, 5% DMSO, room temperature, 3 h
[6] = system: CYP isoforms 1A2, 2B6, 2C8, 2C9, 2C19, 2D6, 3A4; assay: in vitro; details: human
in vitro [7] = details: plasma
[8] = system: Rat small mesenteric artery
in vitro [9] = details: PAMPA, pH 7.4, PAMPA Papp (cm/S × 10^–6)
[10] = pH 7.4
[11] = system: CYP1A2, 2B6, 2C8, 2C9, 2C19, 2D6, 3A4 (value spans the isoforms); assay: in vitro; details: human

SMILES: CC(=O)Nc1ccc(Nc2ncnc(N[C@@H](Cc3ccc(O)cc3)C(=O)OC(C)(C)C)n2)cc1 [Compound 42, tert-Butyl (4-((4-Acetamidophenyl)amino)-1,3,5-triazin-2-yl)-L-tyrosinate]
- KD (μM) [1]: did not meet the minimum binding threshold

SMILES: CC(=O)Nc1ccc(Nc2ncnc(N[C@@H](CC(C)C)C(=O)OC(C)(C)C)n2)cc1 [Compound 26, tert-Butyl (4-((4-Acetamidophenyl)amino)-1,3,5-triazin-2-yl)-L-leucinate]
- FP EC50 (μM) [2]: Inactive
- inhibition of cAMP formation [3]: inhibition trend that did not reach statistical significance

SMILES: COC(=O)[C@H](CC(C)C)Nc1nc(Cl)nc(N[C@H]2CC[C@H](Nc3nc(Cl)nc(N[C@@H](CC(C)C)C(=O)OC)n3)CC2)n1 [Compound 17, Dimethyl 2,2′-(((((1r,4r)-Cyclohexane-1,4-diyl)bis(azanediyl))bis(6-chloro-1,3,5-triazine-4,2-diyl))bis(azanediyl))bis(4-methylpentanoate)]
- hepatocyte CLint (in vitro [4]): < 6.4 µL/min/1e6 cells
- half-life (in vitro [4]; hepatocyte (rat) T1/2 (min), 1 μM test compound): > 3.33 h
- Mouse small mesenteric artery NPR-C KO EC50 ± SEM (μM) ([5]; vasorelaxation, NPR-C knockout): maintained their activity
- inhibition of cAMP formation [3]: inhibition trend that did not reach statistical significance
- solubility (physchem): > 70 µg/mL
- EC50 [6]: 4.96 to 37.8 µM
- fraction unbound (in vitro [7]; Sprague-Dawley, human and rat): < 0.005
- Rat small mesenteric artery EC50+NPR-C inhibitor (M372049) ± SEM (μM) ([8]; vasorelaxation, with M372049 (10 μM)): maintained their activity
- Papp (in vitro [9]): < 1 ×10⁻⁶ cm/s
- Papp (in vitro [9]; pH 7.4, 5 h, room temperature): < 0.023 ×10⁻⁶ cm/s

SMILES: CON(C)C(=O)[C@H](CC(C)C)Nc1ncnc(Nc2ccc(NC(C)=O)cc2)n1 [Compound 32, (S)-2-((4-((4-Acetamidophenyl)amino)-1,3,5-triazin-2-yl)amino)-N-methoxy-N,4-dimethylpentanamide]
- Kd [1]: 144 ± 7.7 µM

SMILES: CC(=O)Nc1ccc(Nc2ncnc(N[C@H](CC(C)C)C(=O)OC(C)(C)C)n2)cc1 [Compound 34, tert-Butyl (4-((4-Acetamidophenyl)amino)-1,3,5-triazin-2-yl)-D-leucinate]
- KD (μM) [1]: failing to pass the preliminary binding screen

SMILES: CC(=O)Nc1ccc(Nc2ncnc(N[C@@H](C)C(=O)OC(C)(C)C)n2)cc1 [Compound 39, tert-Butyl (4-((4-Acetamidophenyl)amino)-1,3,5-triazin-2-yl)-L-alaninate]
- KD (μM) [1]: did not meet the minimum binding threshold

SMILES: CC(=O)Nc1ccc(Nc2ncnc(NCC(=O)OC(C)(C)C)n2)cc1 [Compound 36, tert-Butyl (4-((4-Acetamidophenyl)amino)-1,3,5-triazin-2-yl)glycinate]
- PAMPA Papp (cm/S × 10^–6) [10]: < 1

SMILES: CC(=O)Nc1ccc(Nc2ncnc(N[C@@H](CC(C)C)C(=O)O)n2)cc1 [Compound 27, (4-((4-Acetamidophenyl)amino)-1,3,5-triazin-2-yl)-L-leucine]
- solubility (physchem): > 70 µg/mL
- EC50 [11]: > 50 µM
- fraction unbound (in vitro [7]): 0.15

SMILES: CC(C)C[C@H](Nc1nc(Cl)nc(Nc2ccc(NC(=O)c3ccccc3)cc2)n1)C(=O)OC(C)(C)C [Compound 22, tert-Butyl (4-((4-Benzamidophenyl)amino)-6-chloro-1,3,5-triazin-2-yl)-L-leucinate]
- KD (μM) [1]: poor binding profile; also recorded: Rmax>>theoretical

SMILES: CC(=O)Nc1ccc(Nc2ncnc(NC(C)(C)C(=O)OC(C)(C)C)n2)cc1 [Compound 38, tert-Butyl 2-((4-((4-Acetamidophenyl)amino)-1,3,5-triazin-2-yl)amino)-2-methylpropanoate]
- KD (μM) [1]: did not meet the minimum binding threshold

SMILES: CC(=O)Nc1ccc(Nc2ncnc(N[C@H](CC(=O)OC(C)(C)C)Cc3ccccc3)n2)cc1 [Compound 44, tert-Butyl (S)-3-((4-((4-Acetamidophenyl)amino)-1,3,5-triazin-2-yl)amino)-4-phenylbutanoate]
- Kd [1]: 29.6 ± 4.5 µM
- FP EC50 (μM) [2]: Inactive

SMILES: CC(=O)Nc1ccc(Nc2ncnc(NCCC(=O)OC(C)(C)C)n2)cc1 [Compound 1, tert-Butyl 3-((4-((4-Acetamidophenyl)amino)-1,3,5-triazin-2-yl)amino)propanoate]
- FP EC50 (μM) [2]: Low % binding
- reduction in potency in NPR-C KO tissue ([5]; mouse SMA, KO vs wild-type): 6.4 fold
- EC50 [11]: > 50 µM
- reduction in potency (EC50 value) when treated with M372049 ([8]; rat SMA): 10 fold
- reduction in potency (EC50 value) when treated with osteocrin ([8]; rat SMA): 2.5 fold
